Read-outs that look alike come from different tables or passages of the source.
What was measured:
[1] = target: sigma-1 receptor (Homo sapiens, UniProt Q99720); assay: sigma-1 receptor binding affinity (Ki)
[2] = target: sigma-2 receptor (Homo sapiens, UniProt Q5BJF2); assay: sigma-2 receptor binding affinity (Ki)
Sequence of sigma-2 receptor (Q5BJF2 whole entry, species assumed): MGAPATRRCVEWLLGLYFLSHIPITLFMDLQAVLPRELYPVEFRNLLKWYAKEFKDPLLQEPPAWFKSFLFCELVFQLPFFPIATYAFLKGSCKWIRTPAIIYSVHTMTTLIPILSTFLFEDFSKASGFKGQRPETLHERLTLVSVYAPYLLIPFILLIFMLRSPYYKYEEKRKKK

Sequence of sigma-1 receptor (Q99720 whole entry, species assumed): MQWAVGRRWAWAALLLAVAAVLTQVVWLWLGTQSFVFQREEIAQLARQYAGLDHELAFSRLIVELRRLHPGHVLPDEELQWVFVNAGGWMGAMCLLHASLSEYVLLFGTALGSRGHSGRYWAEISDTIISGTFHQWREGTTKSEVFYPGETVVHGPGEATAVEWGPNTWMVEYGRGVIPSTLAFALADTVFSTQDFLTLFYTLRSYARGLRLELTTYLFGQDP

Row | Compound | Ki ([1]; read-out: Ki (nM) Sigma-1) | Ki ([2]; read-out: Ki (nM) Sigma-2) | further results
1 | O=C(c1c2c(nn1-c1ccc(F)cc1)CCC(NCc1ccc(F)cc1)C2)N1CCCCC1 (stereo not shown) [compound 201117, (5-((4-fluorobenzyl)amino)-2-(4-fluorophenyl)-4,5,6,7-tetrahydro-2H-indazol-3-yl)(piperidin-1-yl)methanone] | 17 nM |  | selectivity of sigma-1 ligand against sigma-2 [1]: over 500 ×
2 | O=C(c1nn(-c2ccccc2)c2c1CC(NCCc1ccncc1)CC2)N1CCCCC1 (stereo not shown) [compound 201666, (1-Phenyl-5-((2-(pyridin-4-yl)ethyl)amino)-4,5,6,7-tetrahydro-1H-indazol-3-yl)(piperidin-1-yl)methanone] | 1030 nM | 517 nM | 
3 | O=C(c1nn(-c2ccccc2)c2c1CC(NCCc1cccc(O)c1)CC2)N1CCCCC1 (stereo not shown) [compound 201681, (5-((3-Hydroxyphenethyl)amino)-1-phenyl-4,5,6,7-tetrahydro-1H-indazol-3-yl)(piperidin-1-yl)methanone] | 204 nM | > 10000 nM | 
4 | NC(=O)c1ccc(-n2nc(C(=O)N3CCCCC3)c3c2CCC(NCCc2ccccc2)C3)cc1 (stereo not shown) [compound 201243, 4-(5-(Phenethylamino)-3-(piperidine-1-carbonyl)-4,5,6,7-tetrahydro-1H-indazol-1-yl)benzamide] | 465 nM | 561 nM | 
5 | CCCn1nc(C(=O)N(C)C)c2c1CCC(SCc1ccc(F)cc1)C2 (stereo not shown) [compound 200624, 5-((4-fluorobenzyl)thio)-N,N-dimethyl-1-propyl-4,5,6,7-tetrahydro-1H-indazole-3-carboxamide] | > 10000 nM | > 10000 nM | activity against sigma-1 (in words) [1]: completely lost; activity against sigma-2 (in words) [2]: completely lost
6 | CCCn1nc(C(=O)N(C)C)c2c1CCC(NC(=O)c1ccc(F)cc1)C2 (stereo not shown) [compound 2000623, 5-(4-fluorobenzamido)-N,N-dimethyl-1-propyl-4,5,6,7-tetrahydro-1H-indazole-3-carboxamide] | > 10000 nM | > 10000 nM | activity against sigma-1 (in words) [1]: did not restore the activity; activity against sigma-2 (in words) [2]: did not restore the activity
7 | CCCn1nc(C(=O)N(C)C)c2c1CCC(NCc1ccc(Cl)cc1)C2 (stereo not shown) [compound 200875, 5-((4-chlorobenzyl)amino)-N,N-dimethyl-1-propyl-4,5,6,7-tetrahydro-1H-indazole-3-carboxamide] |  | 1020 nM | activity against sigma-1 (in words) [1]: complete loss of activity; activity against sigma-2 (in words) [2]: moderate inhibition
8 | CCCn1nc(C(=O)N(C)C)c2c1CCC(NCc1ccc(OC)cc1OC)C2 (stereo not shown) [compound 200874, 5-((2,4-dimethoxybenzyl)amino)-N,N-dimethyl-1-propyl-4,5,6,7-tetrahydro-1H-indazole-3-carboxamide] |  | 839 nM | 
9 | CCCn1nc(C(=O)N(C)C)c2c1CCC(OCc1ccc(F)cc1)C2 (stereo not shown) [compound 200622, 5-((4-fluorobenzyl)oxy)-N,N-dimethyl-1-propyl-4,5,6,7-tetrahydro-1H-indazole-3-carboxamide] | > 10000 nM | > 10000 nM | activity against sigma-1 (in words) [1]: completely lost; activity against sigma-2 (in words) [2]: completely lost
10 | O=C(c1nn(Cc2ccccc2)c2c1CC(NCc1ccc(F)cc1)CC2)N1CCCCC1 (stereo not shown) [compound 201115, (1-benzyl-5-((4-fluorobenzyl)amino)-4,5,6,7-tetrahydro-1H-indazol-3-yl)(piperidin-1-yl)methanone] | 70 nM | > 10000 nM | selectivity sigma-1 versus sigma-2 (in words) [1]: excellent selectivity
11 | NC(=O)c1ccc(-n2nc3c(c2C(=O)N2CCCCC2)CC(NCCc2ccccc2)CC3)cc1 (stereo not shown) [compound 201242, 4-(5-(Phenethylamino)-3-(piperidine-1-carbonyl)-4,5,6,7-tetrahydro-2H-indazol-2-yl)benzamide] | 588 nM | > 10000 nM | 
12 | O=C(c1c2c(nn1-c1ccccc1)CCC(NCCc1ccc(C(F)(F)F)cc1)C2)N1CCCCC1 (stereo not shown) [compound 201683, (2-Phenyl-5-((4-(trifluoromethyl)phenethyl)amino)-4,5,6,7-tetrahydro-2H-indazol-3-yl)(piperidin-1-yl)methanone] | 213 nM | > 10000 nM | 
13 | CCCn1nc(C(=O)N(C)C)c2c1CCC(NCc1ccc(F)cc1)C2 (stereo not shown) [compound 54121, 5-((4-Fluorobenzyl)amino)-N,N-dimethyl-1-propyl-4,5,6,7-tetrahydro-1H-indazole-3-carboxamide] | 1580 nM | 2190 nM | activity against sigma-1 (in words) [1]: moderate activity; selectivity sigma-1 versus sigma-2 (in words) [1]: slightly more selectivity for the sigma-1 receptor; Ki ([1]; read-out: Ki sigma-1): 1500 nM; activity against sigma-2 (in words) [2]: moderate activity; Ki ([2]; read-out: Ki sigma-2): 2100 nM
14 | O=C(c1nn(Cc2ccccc2)c2c1CC(NCCc1ccncc1)CC2)N1CCCCC1 (stereo not shown) [compound 201114, (1-benzyl-5-((2-(pyridin-4-yl)ethyl)amino)-4,5,6,7-tetrahydro-1H-indazol-3-yl)(piperidin-1-yl)methanone] | 249 nM | > 10000 nM | 
15 | CCCn1nc(C(=O)N2CCCCC2)c2c1CCC(N1CCN(Cc3ccc(C#N)cc3)CC1)C2 (stereo not shown) [compound 200641, 4-((4-(3-(Piperidine-1-carbonyl)-1-propyl-4,5,6,7-tetrahydro-1H-indazol-5-yl)piperazin-1-yl)methyl)benzonitrile] |  | 1100 nM | 
16 | CCCn1nc(C(=O)N2CCCCC2)c2c1CCC(NCC1CCOCC1)C2 (stereo not shown) [compound 200642, Piperidin-1-yl(1-propyl-5-(((tetrahydro-2H-pyran-4-yl)methyl)amino)-4,5,6,7-tetrahydro-1H-indazol-3-yl)methanone] |  | 710 nM | 
17 | CCCn1nc(C(=O)N2CCCCC2)c2c1CCC(NCCNC(=N)N)C2 (stereo not shown) [compound 200829, 2-(2-((3-(Piperidine-1-carbonyl)-1-propyl-4,5,6,7-tetrahydro-1H-indazol-5-yl)amino)ethyl)guanidine] |  | 2160 nM | activity against sigma-2 (in words) [2]: decreased activity
18 | CCCn1nc(C(=O)N2CCCCC2)c2c1CCC(NCCCN1CCCC1=O)C2 (stereo not shown) [compound 54120] |  | 673 nM | 
19 | CCCn1nc(C(=O)N2CCCCC2)c2c1CCC(Nc1ccc(N3CCCCC3)cc1)C2 (stereo not shown) [compound 200637, Piperidin-1-yl(5-((4-(piperidin-1-yl)phenyl)amino)-1-propyl-4,5,6,7-tetrahydro-1H-indazol-3-yl)methanone] |  | 787 nM | 
20 | CCCn1nc(C(=O)N2CCCCC2)c2c1CCC(NCCCNC)C2 (stereo not shown) [compound 200820, (5-((3-(Methylamino)propyl)amino)-1-propyl-4,5,6,7-tetrahydro-1H-indazol-3-yl)(piperidin-1-yl)methanone] |  | 1990 nM | 

Continued by falling Ki ([2]; read-out: Ki (nM) Sigma-2), values first:

Row | Ki ([1]; read-out: Ki (nM) Sigma-1) | Ki ([2]; read-out: Ki (nM) Sigma-2) | Compound | further results
21 |  | 439 nM | CCCn1nc(C(=O)N2CCCCC2)c2c1CCC(NCc1ccc(S(N)(=O)=O)cc1)C2 (stereo not shown) [compound 200652, 4-(((3-(Piperidine-1-carbonyl)-1-propyl-4,5,6,7-tetrahydro-1H-indazol-5-yl)amino)methyl)benzenesulfonamide] | 
22 |  | 434 nM | CCCn1nc(C(=O)N2CCCCC2)c2c1CCC(NCCN1CCCCC1)C2 (stereo not shown) [compound 200640, Piperidin-1-yl(5-((2-(piperidin-1-yl)ethyl)amino)-1-propyl-4,5,6,7-tetrahydro-1H-indazol-3-yl)methanone] | 
23 | > 10000 nM | 430 nM | CCCn1nc(C(=O)N(C)C)c2c1CCC(NCCc1ccc3c(c1)OCO3)C2 (stereo not shown) [compound 200876, 5-((2-(benzo[d][1,3]dioxol-5-yl)ethyl)amino)-N,N-dimethyl-1-propyl-4,5,6,7-tetrahydro-1H-indazole-3-carboxamide] | 
24 | 458 nM | 305 nM | C=Cc1ccc(-n2nc(C(=O)N3CCCCC3)c3c2CCC(NCCc2ccccc2)C3)cc1 (stereo not shown) [compound 201244, (5-(Phenethylamino)-1-(4-vinylphenyl)-4,5,6,7-tetrahydro-1H-indazol-3-yl)(piperidin-1-yl)methanone] | 
25 | 103 nM | 251 nM | O=C(c1c2c(nn1-c1ccc(F)cc1)CCC(NCCc1ccncc1)C2)N1CCCCC1 (stereo not shown) [compound 201116, (2-(4-fluorophenyl)-5-((2-(pyridin-4-yl)ethyl)amino)-4,5,6,7-tetrahydro-2H-indazol-3-yl)(piperidin-1-yl)methanone] | 
26 |  | 169 nM | CCCn1nc(C(=O)N2CCCCC2)c2c1CCC(NCc1ccc(N3CCCCC3)cc1)C2 (stereo not shown) [compound 200647, Piperidin-1-yl(5-((4-(piperidin-1-yl)benzyl)amino)-1-propyl-4,5,6,7-tetrahydro-1H-indazol-3-yl)methanone] | 
27 | 38 nM | 139 nM | O=C(c1c2c(nn1-c1ccccc1)CCC(NCc1ccccc1)C2)N1CCCCC1 (stereo not shown) [compound 201676, (5-(Benzylamino)-2-phenyl-4,5,6,7-tetrahydro-2H-indazol-3-yl)(piperidin-1-yl)methanone] | 
28 | 96 nM | 32 nM | C=Cc1ccc(-n2nc3c(c2C(=O)N2CCCCC2)CC(NCCc2ccccc2)CC3)cc1 (stereo not shown) [compound 201591, (5-(phenethylamino)-2-(4-vinylphenyl)-4,5,6,7-tetrahydro-2H-indazol-3-yl)(piperidin-1-yl)methanone] | 
29 |  | 31 nM | CCCn1nc(C(=O)N2CCCCC2)c2c1CCC(N1CCc3ccccc3C1)C2 (stereo not shown) [compound 196338, (5-(3,4-dihydroisoquinolin-2(1H)-yl)-1-propyl-4,5,6,7-tetrahydro-1H-indazol-3-yl)(piperidin-1-yl)methanone] | activity against sigma-2 (in words) [2]: retained sigma-2 activity; selectivity of sigma-2 ligands against sigma-1 (in words) [2]: excellent selectivity
30 |  | 19 nM | CCCn1nc(C(=O)N2CCCCC2)c2c1CCC(N(C)Cc1ccc(F)cc1)C2 (stereo not shown) [compound 196339, (5-((4-fluorobenzyl)(methyl)amino)-1-propyl-4,5,6,7-tetrahydro-1H-indazol-3-yl)(piperidin-1-yl)methanone] | selectivity of sigma-2 ligands against sigma-1 (in words) [2]: excellent selectivity
31 |  | 16 nM | CCCn1nc(C(=O)N2CCCCC2)c2c1CCC(N1CCC(c3ccncc3)CC1)C2 (stereo not shown) [compound 200639, Piperidin-1-yl(1-propyl-5-(4-(pyridin-4-yl)piperidin-1-yl)-4,5,6,7-tetrahydro-1H-indazol-3-yl)methanone] | selectivity of sigma-2 ligands against sigma-1 (in words) [2]: excellent selectivity
